Laboratory results published in patent publication US9181181B2, “2-substituted-3-phenylpropionic acid derivatives and their use in the treatment of inflammatory bowel disease” (Albireo AB, priority 2007, dated 2015).

Assays:
human PPARalpha = human PPARalpha (Homo sapiens (Human), UniProt Q07869); assay: Transactivation (reporter gene) assay, GAL4-PPARalpha LBD in U-2 OS cells; assay type: cell-based; conditions: 40 h incubation, 16 μM ETYA as 100% control, read-out: EC50 PPARα
Method: (§1) Transactivation Assay Expression vectors were prepared by inserting the ligand binding domain cDNA (complementary DNA) of human PPARalpha (amino acid 168-468) and human PPARgamma (amino acid 205-505), 3′ to and in frame with, the yeast GAL4 transcription factor DNA binding domain and the nuclear localization signal from the T-antigen of Polyoma Virus into the mammalian expression vector pSGS (Stratagene). The resulting expression vectors pSGGAL-PPARalpha and pSGGAL-PPARgamma were used in co-transfection experiments together with a modified pGL3 promoter plasmid (Promega) containing five copies of the UAS GAL4 recognition site. 2.5 μg pSGGAL-PPARalpha or pSGGAL-PPARgamma were mixed with 25 μg pGL3p […] and 22.5 μg pBluescript (Stratagene) in 0.95 mL ice cold PBS containing between 9-12 million U-2 OS (human osteosarcoma) cells. The cell/DNA mixture was incubated on ice for 5 minutes and then divided between two 0.4 cm cuvettes and electroporated at 960 μF, 230 V using a BioRad electroporator. The two electroporation mixes were combined in assay medium [Dulbecco's Modified Eagle Medium w/o phenol red, (Gibco 11880-028) including 10% FBS (Foetal Bovine Serum), 1% PEST (Penicillin & Streptomycin), 20 mM Hepes, 2 mM L-Glutamine and 0.36% Glucose (Gibco 31966-021)] at 0.32 million cells/ml. 25 μl diluted, electroporated cells, were seeded into 384-well plates and allowed to adhere for 3-4 h at 37° C., 5% CO2 in a cell culture incubator. Test compounds in DMSO were diluted 40 fold in assay medium. 7 μl of diluted compound was added to the adhered electroporated cells and incubation was continued for 40 h in a cell culture incubator. Cells were lysed by adding 32 μl/well LucLite (Packard) and incubated at room temperature for 15 minutes. Luciferase activity was measured using a luminometry protocol on a Wallac Victor2 plate reader. 16 μM ETYA was used as the 100% control for humanPPARalpha activity and 16 μM Pioglitazone was used as the 100% control for humanPPARgamma activity. In Vivo Assay Determination of Plasma Clearance and Oral Bioavailability in Hamster or Mouse

human PPARgamma = human PPARgamma (Homo sapiens (Human), UniProt P37231); assay: Transactivation (reporter gene) assay, GAL4-PPARgamma LBD in U-2 OS cells; assay type: cell-based; conditions: 40 h incubation, 16 μM Pioglitazone as 100% control, read-out: EC50 PPARγ
Chain of human PPARgamma (P37231 205-505): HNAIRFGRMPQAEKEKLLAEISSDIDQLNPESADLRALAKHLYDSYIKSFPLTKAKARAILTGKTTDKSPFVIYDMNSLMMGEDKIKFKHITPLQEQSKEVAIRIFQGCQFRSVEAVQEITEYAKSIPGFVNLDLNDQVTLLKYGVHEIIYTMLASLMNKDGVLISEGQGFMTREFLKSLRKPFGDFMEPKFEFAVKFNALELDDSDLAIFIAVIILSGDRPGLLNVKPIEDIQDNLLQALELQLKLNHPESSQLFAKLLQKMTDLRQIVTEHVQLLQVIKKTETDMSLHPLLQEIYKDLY
Method: as §1

Chain of human PPARalpha (Q07869 168-468): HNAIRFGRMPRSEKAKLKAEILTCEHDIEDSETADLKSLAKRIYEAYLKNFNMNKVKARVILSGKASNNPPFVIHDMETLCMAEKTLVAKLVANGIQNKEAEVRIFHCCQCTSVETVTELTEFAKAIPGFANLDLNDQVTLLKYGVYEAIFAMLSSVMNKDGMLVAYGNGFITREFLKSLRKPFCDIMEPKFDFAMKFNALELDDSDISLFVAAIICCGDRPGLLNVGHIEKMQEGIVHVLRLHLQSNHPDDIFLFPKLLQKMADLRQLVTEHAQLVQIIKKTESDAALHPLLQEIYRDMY

Row | Compound | EC50 (human PPARalpha) [µM] | EC50 (human PPARgamma) [µM]
1 | Cc1oc(-c2ccccc2)nc1CCOC(=O)c1ccc(CC(SCCc2ccc(F)cc2)C(=O)O)cc1 (single isomer, unassigned) [Example 20, 4-{(−)-2-Carboxy-2-[2-(4-fluoro-phenyl)-ethylsulfanyl]-ethyl}-benzoic acid 2-(5-methyl-2-phenyl-oxazol-4-yl)-ethyl ester] | 0.84 | 0.072
2 | Cc1oc(-c2ccccc2)nc1CC(=O)OCc1ccc(CC(SCCc2ccc(F)cc2)C(=O)O)cc1 (single isomer, unassigned; (-)) [Example 19, (−)-2-[2-(4-Fluoro-phenyl)-ethylsulfanyl]-3-{4-[2-(5-methyl-2-phenyl-oxazol-4-yl)-acetoxymethyl]-phenyl}-propionic acid] | 0.072 | 0.47
3 | O=C(Cc1ccc(CC(SCCc2ccc(F)cc2)C(=O)O)cc1)OCc1ccc(C(F)(F)F)cc1 (stereo not drawn) [Example 3, 2-[2-(4-Fluoro-phenyl)-ethylsulfanyl]-3-[4-(4-trifluoromethyl-benzyloxycarbonylmethyl)-phenyl]-propionic acid] | 0.056 | 1.7
4 | CS(=O)(=O)Oc1ccc(COC(=O)Cc2ccc(CC(SCCc3ccc(F)cc3)C(=O)O)cc2)cc1 (stereo not drawn) [Example 4, 2-[2-(4-Fluoro-phenyl)-ethylsulfanyl]-3-[4-(4-methanesulfonyloxy-benzyloxycarbonylmethyl)-phenyl]-propionic acid] | 1.4 | 
5 | CS(=O)(=O)Oc1ccc(CC(=O)OCCc2ccc(CC(SCCc3ccc(F)cc3)C(=O)O)cc2)cc1 (stereo not drawn) [Example 5, 2-[2-(4-Fluoro-phenyl)-ethylsulfanyl]-3-(4-{2-[2-(4-methanesulfonyloxy-phenyl)-acetoxy]-ethyl}-phenyl)-propionic acid] | 0.2 | 6
6 | CS(=O)(=O)Oc1ccc(CC(=O)OCCCc2ccc(CC(SCCc3ccc(F)cc3)C(=O)O)cc2)cc1 (stereo not drawn) [Example 6, 2-[2-(4-Fluoro-phenyl)-ethylsulfanyl]-3-(4-{3-[2-(4-methanesulfonyloxy-phenyl)-acetoxy]-propyl}-phenyl)-propionic acid] | 0.33 | 18
7 | CC(C(=O)OCc1ccc(CC(SCCc2ccc(F)cc2)C(=O)O)cc1)c1ccccc1 (stereo not drawn) [Example 7, 2-[2-(4-Fluoro-phenyl)-ethylsulfanyl]-3-[4-(2-phenyl-propionyloxymethyl)-phenyl]-propionic acid] | 18 | 1.7
8 | COc1ccc(CC(=O)OCc2ccc(CC(SCCc3ccc(F)cc3)C(=O)O)cc2)cc1 (stereo not drawn) [Example 8] | 0.27 | 2.5
9 | CC(C)Cc1ccc(C(C)C(=O)OCc2ccc(CC(SCCc3ccc(F)cc3)C(=O)O)cc2)cc1 (stereo not drawn) [Example 9, 2-[2-(4-Fluoro-phenyl)-ethylsulfanyl]-3-{4-[2-(4-isobutyl-phenyl)-propionyloxymethyl]-phenyl}-propionic acid] | 1.5 | 0.93
10 | CN1CCN(CC(=O)OCc2ccc(CC(SCCc3ccc(F)cc3)C(=O)O)cc2)CC1 (stereo not drawn) [Example 11, 2-[2-(4-Fluoro-phenyl)-ethylsulfanyl]-3-{4-[2-(4-methyl-piperazin-1-yl)-acetoxymethyl]-phenyl}-propionic acid] | 0.15 | 0.81
11 | O=C(OCc1nc(-c2ccccc2)oc1C(F)(F)F)c1ccc(CC(SCCc2ccc(F)cc2)C(=O)O)cc1 (stereo not drawn) [Example 12, 4-{2-Carboxy-2-[2-(4-fluoro-phenyl)-ethylsulfanyl]-ethyl}-benzoic acid 2-phenyl-5 trifluoromethyl-oxazol-4-ylmethyl ester] |  | 0.058
12 | O=C(OCc1ccc(CC(SCCc2ccc(F)cc2)C(=O)O)cc1)c1nc(-c2ccccc2)oc1C(F)(F)F (stereo not drawn) [Example 13, 2-Phenyl-5-trifluoromethyl-oxazole-4-carboxylic acid 4-{2-carboxy-2-[2-(4-fluoro-phenyl)-ethylsulfanyl]-ethyl}-benzyl ester] | 0.012 | 0.03
13 | Cc1oc(-c2ccccc2)nc1CCOC(=O)c1ccc(CC(SCCc2ccc(F)cc2)C(=O)O)cc1 (stereo not drawn) [Example 14, 4-{2-Carboxy-2-[2-(4-fluoro-phenyl)-ethylsulfanyl]-ethyl}-benzoic acid 2-(5-methyl-2 phenyl-oxazol-4-yl)-ethyl ester] | 1.4 | 0.11
14 | Cc1oc(-c2ccccc2)nc1CC(=O)OCc1ccc(CC(SCCc2ccc(F)cc2)C(=O)O)cc1 (stereo not drawn) [Example 15, 2-[2-(4-Fluoro-phenyl)-ethylsulfanyl]-3-{4-[2-(5-methyl-2-phenyl-oxazol-4-yl)acetoxymethyl]-phenyl}-propionic acid] | 0.13 | 0.84
15 | CS(=O)(=O)Oc1ccc(COC(=O)c2ccc(CC(SCCc3ccc(F)cc3)C(=O)O)cc2)cc1 (stereo not drawn) [Example 16, 4-{2-Carboxy-2-[2-(4-fluoro-phenyl)-ethylsulfanyl]-ethyl}-benzoic acid 4-methanesulfonyloxy-benzyl ester] | 1.1 | 
16 | O=C(Cc1ccc(CC(C(=O)O)S(=O)(=O)CCc2ccc(F)cc2)cc1)OCc1ccc(C(F)(F)F)cc1 (stereo not drawn) [Example 17, 2-[2-(4-Fluoro-phenyl)-ethanesulfonyl]-3-[4-(4-trifluoromethyl-benzyloxycarbonylmethyl)-phenyl]-propionic acid] | 4.4 | 18
17 | CS(=O)(=O)Oc1ccc(CCSC(=O)c2ccc(CC(SCCc3ccc(F)cc3)C(=O)O)cc2)cc1 (stereo not drawn) [Example 18, 2-[2-(4-Fluoro-phenyl)-ethylsulfanyl]-3-{4-[2-(4-methanesulfonyloxy-phenyl)-ethylsulfanylcarbonyl]-phenyl}-propionic acid] | 3.4 | 
18 | CCO[C@@H](Cc1ccc(OC(=O)Cc2ccc(NC(=O)OC(C)(C)C)cc2)cc1)C(=O)O [Example 22, (S)-3-{4-[2-(4-tert-Butoxycarbonylamino-phenyl)-acetoxy]-phenyl}-2-ethoxy-propionic acid] | 18 | 18
19 | CCOC(Cc1ccc(OC(=O)Cc2nc(-c3ccccc3)oc2C)c(Cc2ccccc2)c1)C(=O)O (stereo not drawn) [Example 23, 3-{3-Benzyl-4-[2-(5-methyl-2-phenyl-oxazol-4-yl)-acetoxy]-phenyl}-2-ethoxy-propionic acid] |  | 0.053
20 | CCOC(Cc1ccc(OC(=O)Cc2ccc(NC(=O)OC(C)(C)C)cc2)c(Cc2ccccc2)c1)C(=O)O (stereo not drawn) [Example 24, 3-{3-Benzyl-4-[2-(4-tert-butoxycarbonylamino-phenyl)-acetoxy]-phenyl}-2-ethoxy-propionic acid] |  | 0.0052
21 | CCOC(Cc1ccc(OC(=O)Cc2nc(-c3ccccc3)oc2C)c(C)c1)C(=O)O (stereo not drawn) [Example 25, 2-Ethoxy-3-{3-methyl-4-[2-(5-methyl-2-phenyl-oxazol-4-yl)-acetoxy]-phenyl}-propionic acid] |  | 0.043
22 | CCOC(Cc1ccc(OC(=O)Cc2ccc(NC(=O)OC(C)(C)C)cc2)c(C)c1)C(=O)O (stereo not drawn) [Example 26, 3-{4-[2-(4-tert-Butoxycarbonylamino-phenyl)-acetoxy]-3-methyl-phenyl}-2-ethoxy-propionic acid] |  | 0.073
23 | CCOC(Cc1ccc(C(=O)OCc2ccc(OS(C)(=O)=O)cc2)cc1)C(=O)O (stereo not drawn) [Example 27, 4-(2-Carboxy-2-ethoxy-ethyl)-benzoic acid 4-methanesulfonyloxy-benzyl ester] |  | 1.4
24 | O=C(Cc1cccc(SCc2ccccc2C(=O)O)c1)OCc1ccc(C(F)(F)F)cc1 [Example 28, 2-[3-(4-Trifluoromethyl-benzyloxycarbonylmethyl)-phenylsulfanylmethyl]-benzoic acid] | 1.3 | 2.5
